From ChEMBL document CHEMBL1201862, “PubChem BioAssay data set” (2004)
The source made the active and inactive calls.

Key:
[1] = target: Photoreceptor-specific nuclear receptor (Homo sapiens, UniProt Q9Y5X4); experiment: ligands suppressing NR2E3 nuclear receptor activity – biochemical, TR-FRET, dose response (AID 463256); format: functional
[2] = target: Peroxisome proliferator-activated receptor gamma/Nuclear receptor corepressor 2 (Homo sapiens, UniProt P37231+Q9Y618); experiment: Counterscreen for NR2E3 inverse agonists: TR-FRET-based biochemical high throughput dose response assay to identify inverse agonists of the interaction between peroxisome proliferator-activated receptor gamma (PPARg) and nuclear receptor co-repressor 2 (NCOR2).; format: functional
[3] = A cytotoxicity screen of small molecule inhibitors of the PhoP region in Salmonella typhi identified in the primary screen. [Related pubchem assays: 1850, 1864, 1985 ]; format: functional
[4] = Trypanosoma cruzi growth suppression in host cells – NIH3T3 host cells, beta-gal luminescence, confirmation (AID 2044); format: functional, cell-based;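 also: intracellular parasites grown in NIH/3T3 mouse fibroblasts as host cells; luminescent beta-galactosidase reporter signal from transgenic T. cruzi replicating inside host cells; inhibitors lower the luminescence signal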
[5] = NIH3T3 cell viability loss – ATP luminescence, mouse fibroblasts, counter-screen, dose response (AID 2010); format: functional, cell-based;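 also: cells exposed to compound for about 90 hours before reading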
Estrogen receptor beta = Estrogen receptor beta (Homo sapiens, UniProt Q92731);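 also: recombinant ER-beta bound to coactivator SRC1 peptide in presence of estradiol agonist; inhibitors block coactivator peptide binding and lower the FRET signal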
[6] = Luminescence Cell-Based Dose Confirmation HTS to Identify Inhibitors of Platelet Dense Granule Release. [Related pubchem assays: 1663 (Primary HTS), 1678 (Summary of Project)]; format: functional
[7] = target: Induced myeloid leukemia cell differentiation protein Mcl-1 (Homo sapiens, UniProt Q07820); format: functional
[8] = target: Luciferin 4-monooxygenase (Photinus pyralis, UniProt P08659); experiment: inhibition of purified Photinus pyralis luciferase – biochemical, luminescence, dose response (AID 1891)
Cytochrome P450 2C9 = Cytochrome P450 2C9 (Homo sapiens, UniProt P11712)
[9] = target: T1, Lytic switch protein BZLF1 (Epstein-Barr virus (strain B95-8) (HHV-4) (Human herpesvirus 4), UniProt P03206); experiment: inhibition of BZLF1 ZTA DNA binding – biochemical, fluorescence polarization, Epstein-Barr virus, 1536-well, counter-screen for EBNA-1 inhibitor project, dose response (AID 2377); parameters: species or system human gammaherpesvirus 4;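 also: fluorescence polarization of Cy5-labelled ZRE DNA probe bound by purified Zta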
T1 sequence (P03206 whole entry): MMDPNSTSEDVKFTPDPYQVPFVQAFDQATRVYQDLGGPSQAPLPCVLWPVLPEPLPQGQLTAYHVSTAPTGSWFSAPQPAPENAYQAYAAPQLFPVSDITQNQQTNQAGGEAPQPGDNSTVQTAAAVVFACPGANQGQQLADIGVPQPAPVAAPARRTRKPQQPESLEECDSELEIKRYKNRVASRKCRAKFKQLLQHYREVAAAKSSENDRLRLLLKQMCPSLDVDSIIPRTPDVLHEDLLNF

[10] = target: T2, Epstein-Barr nuclear antigen 1 (Epstein-Barr virus (strain B95-8) (HHV-4) (Human herpesvirus 4), UniProt P03211); experiment: inhibition of EBV nuclear antigen 1 DNA binding – biochemical, fluorescence polarization, 1536-well, dose response (AID 2381); parameters: species or system human gammaherpesvirus 4;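 also: fluorescence polarization of a Cy5 DNA probe bound by EBNA-1 protein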
T2 sequence (P03211 whole entry): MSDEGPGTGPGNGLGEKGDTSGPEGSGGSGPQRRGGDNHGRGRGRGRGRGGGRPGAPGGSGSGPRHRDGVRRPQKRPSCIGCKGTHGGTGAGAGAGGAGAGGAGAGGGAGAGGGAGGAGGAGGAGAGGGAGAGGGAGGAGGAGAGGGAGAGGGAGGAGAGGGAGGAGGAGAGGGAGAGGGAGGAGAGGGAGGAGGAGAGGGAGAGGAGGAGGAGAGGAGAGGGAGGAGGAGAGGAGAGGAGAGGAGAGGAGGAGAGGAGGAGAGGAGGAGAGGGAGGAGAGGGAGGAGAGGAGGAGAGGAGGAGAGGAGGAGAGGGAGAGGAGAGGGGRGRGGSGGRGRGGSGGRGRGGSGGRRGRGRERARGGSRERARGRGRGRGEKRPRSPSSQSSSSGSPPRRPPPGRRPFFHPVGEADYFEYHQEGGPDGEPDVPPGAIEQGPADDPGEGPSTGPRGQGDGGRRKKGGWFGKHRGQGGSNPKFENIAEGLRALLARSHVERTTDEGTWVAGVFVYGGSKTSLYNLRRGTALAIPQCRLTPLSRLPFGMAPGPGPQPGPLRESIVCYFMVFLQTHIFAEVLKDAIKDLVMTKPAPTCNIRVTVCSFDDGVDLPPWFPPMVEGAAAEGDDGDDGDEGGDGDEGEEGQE

[11] = target: T3, Ubiquitin carboxyl-terminal hydrolase BAP1 (Homo sapiens, UniProt Q92560); experiment: inhibition of BAP1 ubiquitin hydrolase activity – biochemical, dose response (AID 714); format: functional
T3 sequence (Q92560 whole entry): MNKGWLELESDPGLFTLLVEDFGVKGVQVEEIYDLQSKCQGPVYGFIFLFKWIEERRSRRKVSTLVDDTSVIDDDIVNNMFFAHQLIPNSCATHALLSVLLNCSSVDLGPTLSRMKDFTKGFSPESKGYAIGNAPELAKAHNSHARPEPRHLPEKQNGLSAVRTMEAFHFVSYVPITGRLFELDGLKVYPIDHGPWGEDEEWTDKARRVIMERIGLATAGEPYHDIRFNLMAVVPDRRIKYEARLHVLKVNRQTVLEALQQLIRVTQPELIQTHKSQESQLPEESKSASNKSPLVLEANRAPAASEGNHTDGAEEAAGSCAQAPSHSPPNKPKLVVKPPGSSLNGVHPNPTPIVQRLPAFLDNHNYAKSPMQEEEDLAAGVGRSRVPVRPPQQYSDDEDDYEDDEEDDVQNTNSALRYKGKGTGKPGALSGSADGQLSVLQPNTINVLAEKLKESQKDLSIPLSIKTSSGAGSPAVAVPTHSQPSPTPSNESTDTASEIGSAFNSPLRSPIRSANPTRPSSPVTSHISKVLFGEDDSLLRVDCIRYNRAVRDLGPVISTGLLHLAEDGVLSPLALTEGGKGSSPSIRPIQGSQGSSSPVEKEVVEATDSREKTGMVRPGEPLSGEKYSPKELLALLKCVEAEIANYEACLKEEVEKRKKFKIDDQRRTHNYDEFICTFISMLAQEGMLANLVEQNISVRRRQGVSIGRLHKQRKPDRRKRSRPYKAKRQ

[12] = viability of PTEN-deleted HCT116 cells – cell-based, HCT116 PTEN knockout, dose response (AID 1047); format: functional;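 also: HCT116 colon tumor cells with PTEN knocked out; cells exposed to compound for 60 hours before readout; potency for loss of cell viability measured by luminescence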
[13] = viability of HCT116 lacking mutant beta-catenin – cell-based, human colon tumor, dose response (AID 1045); format: functional;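 also: HCT116 colon tumor cells with beta catenin knocked out; cells exposed to compound for 60 hours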
[14] = toxicity toward HepG2 liver cells – cell-based, plate reader, cherry-pick, antagonist series, cytotoxicity control, dose response (AID 743416); format: functional
[15] = loss of viability in HepG2 cells – cell-based, CellTiter-Glo, cherry-picked, cytotoxicity control for Shn3 inhibitor project, dose response (AID 624134); format: functional
[16] = A549 cell cytotoxicity, dose response, cytotoxicity control, plate reader, cherry-pick, antagonist series (AID 743412); format: functional, cell-based
[17] = blockade of melanocortin 4 receptor signaling – cell-based, plate reader, cherry pick, counter-screen for LGR2 antagonist project, dose response (AID 743444); format: functional;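 also: transfected HEK 293 cells stimulated with alpha-MSH peptide; potency of inhibitors of the alpha-MSH evoked signal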
[18] = viability loss in HEK293 cells – cell-based, plate reader, cherry-picked samples, cytotoxicity control, dose response (AID 743446); format: functional
[19] = target: Sphingosine 1-phosphate receptor 1 (Homo sapiens, UniProt P21453); format: functional;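 also: Tango beta-arrestin reporter U2OS cells stimulated with S1P near its EC80; inhibitor potency meaning antagonism of receptor activation by the natural agonist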
[20] = decrease of insulin promoter-GFP reporter – imaging, high-content screening, mouse beta cells (AID 1628); format: functional; conditions: MIN6
[21] = MIN6 cell viability loss – mouse insulinoma, cytotoxicity control, dose response (AID 2122); format: functional;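 also: confirmatory high-throughput counterscreen run to flag cytotoxic compounds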
[22] = non-specific 3'UTR reporter inhibition in Clone20-Shn3RL – cell-based, Renilla luciferase, cherry-picked, counter-screen for Shn3 inhibitor project, dose response (AID 624133); format: functional
[23] = blockers of bursicon-stimulated LGR2 cAMP reporter – cell-based, HEK293, CRE-luciferase reporter, cherry pick, set 2, dose response (AID 743343); format: functional;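 also: transfected cells were stimulated with diluted bursicon conditioned medium after compound addition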
Paired box protein Pax-8 = Paired box protein Pax-8 (Homo sapiens, UniProt Q06710); experiment: PAX8 transcriptional activity inhibition in RMG-I – RMG-I cells, luciferase, cherry-pick, dose response (AID 687027); format: functional, cell-based;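 also: luciferase reporter driven by Pax8 target thyroperoxidase promoter measured by SteadyGlo luminescence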
[24] = target: T4, Sphingosine 1-phosphate receptor 4 (Homo sapiens, UniProt O95977); experiment: Fluorescence dose response cell-based high throughput screening assay for antagonists of the Sphingosine 1-Phosphate Receptor 4 (S1P4). [Related pubchem assays: 1524 (Confirmation in triplicates.), 1510 (Primary screen.)]; format: functional
T4 sequence (O95977 whole entry): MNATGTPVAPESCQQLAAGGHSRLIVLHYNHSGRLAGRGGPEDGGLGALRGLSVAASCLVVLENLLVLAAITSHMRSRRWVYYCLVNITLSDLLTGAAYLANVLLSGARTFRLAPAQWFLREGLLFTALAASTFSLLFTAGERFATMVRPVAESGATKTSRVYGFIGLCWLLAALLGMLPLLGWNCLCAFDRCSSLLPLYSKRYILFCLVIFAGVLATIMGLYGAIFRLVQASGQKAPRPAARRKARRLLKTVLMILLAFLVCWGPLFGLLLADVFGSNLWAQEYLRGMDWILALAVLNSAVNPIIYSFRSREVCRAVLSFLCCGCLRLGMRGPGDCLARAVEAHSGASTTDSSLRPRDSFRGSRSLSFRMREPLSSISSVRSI

[25] = reduction of Shn3 3'UTR-driven luciferase in osteoblasts – cell-based, Clone20 osteoblasts, firefly luciferase, cherry-picked, dose response (AID 624132); format: functional;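 also: firefly luciferase luminescence from reporter carrying the Shn3 3'UTR in osteoblasts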

Chain of Photoreceptor-specific nuclear receptor (Q9Y5X4 whole entry): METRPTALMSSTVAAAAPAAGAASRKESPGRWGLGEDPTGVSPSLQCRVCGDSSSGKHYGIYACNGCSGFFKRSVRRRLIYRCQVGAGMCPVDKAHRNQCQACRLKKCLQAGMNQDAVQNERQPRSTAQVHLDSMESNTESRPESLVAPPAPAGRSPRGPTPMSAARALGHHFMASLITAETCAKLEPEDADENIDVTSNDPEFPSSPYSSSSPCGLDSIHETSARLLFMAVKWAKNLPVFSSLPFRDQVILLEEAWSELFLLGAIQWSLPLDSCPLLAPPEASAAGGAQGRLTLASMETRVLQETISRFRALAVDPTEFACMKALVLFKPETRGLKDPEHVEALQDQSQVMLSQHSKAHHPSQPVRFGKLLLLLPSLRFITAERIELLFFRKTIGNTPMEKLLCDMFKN
Chain of Peroxisome proliferator-activated receptor gamma/Nuclear receptor corepressor 2 (P37231 whole entry): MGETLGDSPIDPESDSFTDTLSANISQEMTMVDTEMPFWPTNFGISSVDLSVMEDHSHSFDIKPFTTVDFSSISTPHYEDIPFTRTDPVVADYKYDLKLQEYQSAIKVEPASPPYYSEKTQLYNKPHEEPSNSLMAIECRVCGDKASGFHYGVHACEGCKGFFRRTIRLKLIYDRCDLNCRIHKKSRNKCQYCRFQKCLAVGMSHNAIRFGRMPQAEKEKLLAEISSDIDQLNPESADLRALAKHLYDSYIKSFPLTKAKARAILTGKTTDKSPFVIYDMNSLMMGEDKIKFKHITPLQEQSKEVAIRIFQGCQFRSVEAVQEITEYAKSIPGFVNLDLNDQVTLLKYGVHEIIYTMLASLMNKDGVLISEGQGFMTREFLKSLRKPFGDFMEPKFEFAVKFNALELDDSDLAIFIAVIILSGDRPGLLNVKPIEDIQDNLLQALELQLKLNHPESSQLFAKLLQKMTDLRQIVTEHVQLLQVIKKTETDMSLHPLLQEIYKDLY
Chain of Peroxisome proliferator-activated receptor gamma/Nuclear receptor corepressor 2 (Q9Y618 whole entry): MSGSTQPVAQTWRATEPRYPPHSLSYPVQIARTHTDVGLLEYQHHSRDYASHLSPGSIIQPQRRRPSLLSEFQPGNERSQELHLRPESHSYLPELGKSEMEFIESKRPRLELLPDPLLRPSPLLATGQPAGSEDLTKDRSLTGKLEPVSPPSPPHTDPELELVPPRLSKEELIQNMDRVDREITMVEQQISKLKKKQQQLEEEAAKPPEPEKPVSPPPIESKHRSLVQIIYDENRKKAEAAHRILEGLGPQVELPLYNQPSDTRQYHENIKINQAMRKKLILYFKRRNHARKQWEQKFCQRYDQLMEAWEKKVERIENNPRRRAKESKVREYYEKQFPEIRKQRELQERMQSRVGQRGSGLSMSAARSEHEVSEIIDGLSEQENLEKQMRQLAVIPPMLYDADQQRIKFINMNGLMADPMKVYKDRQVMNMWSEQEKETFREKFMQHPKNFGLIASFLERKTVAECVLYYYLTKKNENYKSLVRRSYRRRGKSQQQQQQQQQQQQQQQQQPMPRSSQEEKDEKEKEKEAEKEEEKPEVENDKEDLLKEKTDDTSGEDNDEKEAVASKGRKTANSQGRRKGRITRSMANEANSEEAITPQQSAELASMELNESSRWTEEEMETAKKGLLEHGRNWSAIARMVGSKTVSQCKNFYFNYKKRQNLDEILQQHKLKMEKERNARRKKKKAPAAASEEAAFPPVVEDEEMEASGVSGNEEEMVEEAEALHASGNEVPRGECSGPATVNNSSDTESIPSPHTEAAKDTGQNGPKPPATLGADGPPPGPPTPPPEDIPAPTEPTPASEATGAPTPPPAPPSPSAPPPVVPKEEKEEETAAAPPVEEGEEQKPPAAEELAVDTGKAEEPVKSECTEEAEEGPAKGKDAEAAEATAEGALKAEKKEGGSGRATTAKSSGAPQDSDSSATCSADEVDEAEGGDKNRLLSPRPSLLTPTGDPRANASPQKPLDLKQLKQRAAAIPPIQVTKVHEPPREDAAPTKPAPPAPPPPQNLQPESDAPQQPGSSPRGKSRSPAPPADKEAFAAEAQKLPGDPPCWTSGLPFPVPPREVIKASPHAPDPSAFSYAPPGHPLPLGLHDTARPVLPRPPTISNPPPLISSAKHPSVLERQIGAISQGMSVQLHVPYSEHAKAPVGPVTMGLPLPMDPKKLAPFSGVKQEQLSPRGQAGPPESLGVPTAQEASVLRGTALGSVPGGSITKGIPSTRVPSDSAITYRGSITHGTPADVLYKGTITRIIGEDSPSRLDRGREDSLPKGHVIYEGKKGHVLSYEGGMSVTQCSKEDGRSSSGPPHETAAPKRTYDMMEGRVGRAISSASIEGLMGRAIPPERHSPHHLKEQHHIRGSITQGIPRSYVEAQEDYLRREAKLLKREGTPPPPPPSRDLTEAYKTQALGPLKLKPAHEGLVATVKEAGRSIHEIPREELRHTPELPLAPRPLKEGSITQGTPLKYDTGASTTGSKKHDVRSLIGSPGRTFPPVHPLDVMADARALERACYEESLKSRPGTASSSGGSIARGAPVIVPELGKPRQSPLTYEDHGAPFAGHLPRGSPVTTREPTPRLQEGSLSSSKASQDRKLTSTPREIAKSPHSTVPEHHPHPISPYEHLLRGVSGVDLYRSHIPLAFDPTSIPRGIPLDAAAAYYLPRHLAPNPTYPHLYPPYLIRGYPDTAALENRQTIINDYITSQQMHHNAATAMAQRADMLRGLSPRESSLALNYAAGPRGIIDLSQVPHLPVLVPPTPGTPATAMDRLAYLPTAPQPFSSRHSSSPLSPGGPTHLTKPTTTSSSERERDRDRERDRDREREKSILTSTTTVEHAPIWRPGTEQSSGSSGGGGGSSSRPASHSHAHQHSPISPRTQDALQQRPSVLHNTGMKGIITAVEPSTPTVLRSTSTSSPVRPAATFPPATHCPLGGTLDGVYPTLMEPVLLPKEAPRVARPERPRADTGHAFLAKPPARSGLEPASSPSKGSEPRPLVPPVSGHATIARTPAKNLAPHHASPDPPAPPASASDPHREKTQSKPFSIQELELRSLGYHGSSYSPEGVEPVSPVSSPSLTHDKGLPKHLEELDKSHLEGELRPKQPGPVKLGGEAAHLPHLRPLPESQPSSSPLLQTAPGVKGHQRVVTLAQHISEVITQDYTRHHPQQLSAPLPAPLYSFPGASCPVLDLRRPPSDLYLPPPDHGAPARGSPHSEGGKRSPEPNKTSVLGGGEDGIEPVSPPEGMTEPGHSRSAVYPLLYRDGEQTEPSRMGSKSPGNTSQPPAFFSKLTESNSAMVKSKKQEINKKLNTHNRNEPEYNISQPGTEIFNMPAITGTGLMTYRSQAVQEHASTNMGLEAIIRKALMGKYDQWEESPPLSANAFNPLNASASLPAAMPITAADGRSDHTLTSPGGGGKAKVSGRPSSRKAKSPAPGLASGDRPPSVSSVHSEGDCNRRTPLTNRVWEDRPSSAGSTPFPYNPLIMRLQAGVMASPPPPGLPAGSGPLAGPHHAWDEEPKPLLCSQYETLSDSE
Chain of Induced myeloid leukemia cell differentiation protein Mcl-1 (Q07820 whole entry): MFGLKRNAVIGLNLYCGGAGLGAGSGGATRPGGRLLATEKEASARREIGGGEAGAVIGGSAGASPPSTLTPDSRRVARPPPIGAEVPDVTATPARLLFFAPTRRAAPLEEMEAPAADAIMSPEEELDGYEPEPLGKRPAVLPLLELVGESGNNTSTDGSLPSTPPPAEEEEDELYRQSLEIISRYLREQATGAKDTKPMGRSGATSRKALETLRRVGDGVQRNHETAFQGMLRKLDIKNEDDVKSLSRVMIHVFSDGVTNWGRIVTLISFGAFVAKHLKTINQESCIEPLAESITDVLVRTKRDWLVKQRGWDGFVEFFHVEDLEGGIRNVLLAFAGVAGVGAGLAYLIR
Chain of Estrogen receptor beta (Q92731 whole entry): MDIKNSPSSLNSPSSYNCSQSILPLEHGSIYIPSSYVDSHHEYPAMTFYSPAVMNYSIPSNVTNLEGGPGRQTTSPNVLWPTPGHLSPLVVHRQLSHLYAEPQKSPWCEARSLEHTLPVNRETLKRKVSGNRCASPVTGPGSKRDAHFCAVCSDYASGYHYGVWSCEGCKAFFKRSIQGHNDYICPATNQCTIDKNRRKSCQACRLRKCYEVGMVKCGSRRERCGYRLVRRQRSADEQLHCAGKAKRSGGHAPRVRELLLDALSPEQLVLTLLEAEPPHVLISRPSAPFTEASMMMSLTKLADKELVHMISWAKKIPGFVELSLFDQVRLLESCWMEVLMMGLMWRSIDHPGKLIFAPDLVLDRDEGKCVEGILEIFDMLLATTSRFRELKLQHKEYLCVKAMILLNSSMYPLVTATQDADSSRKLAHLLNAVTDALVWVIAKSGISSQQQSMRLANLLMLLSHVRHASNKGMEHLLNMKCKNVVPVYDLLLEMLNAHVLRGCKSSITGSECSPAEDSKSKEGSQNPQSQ
Chain of Luciferin 4-monooxygenase (P08659 whole entry): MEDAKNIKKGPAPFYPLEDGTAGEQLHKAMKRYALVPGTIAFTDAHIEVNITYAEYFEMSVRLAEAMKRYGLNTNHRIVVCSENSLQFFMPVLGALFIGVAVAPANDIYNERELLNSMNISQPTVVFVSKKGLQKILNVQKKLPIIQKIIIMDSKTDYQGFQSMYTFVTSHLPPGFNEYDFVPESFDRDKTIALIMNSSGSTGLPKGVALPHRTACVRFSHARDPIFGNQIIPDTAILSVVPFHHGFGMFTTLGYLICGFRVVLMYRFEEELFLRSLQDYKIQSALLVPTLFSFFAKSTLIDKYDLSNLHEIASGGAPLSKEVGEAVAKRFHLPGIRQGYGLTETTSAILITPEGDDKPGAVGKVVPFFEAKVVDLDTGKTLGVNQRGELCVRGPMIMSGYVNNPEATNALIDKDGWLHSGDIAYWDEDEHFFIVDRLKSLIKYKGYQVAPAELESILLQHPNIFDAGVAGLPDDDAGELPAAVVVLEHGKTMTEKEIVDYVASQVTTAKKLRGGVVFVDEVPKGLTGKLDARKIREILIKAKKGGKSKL

## COc1ccc(C(=O)Nc2ccc(NC(=O)c3cccs3)cn2)cc1
[1]
  IC50: 7.18 µM (active)
[2]
  IC50: 7.65 µM (active)

## CCN1C(=O)N/C(=C/c2cc(C)n(Cc3ccccc3)c2C)C1=O
[3]
  EC50: > 50 µM (active)

## Cc1ccsc1C(=O)C1CCCN(Cc2cnc(N3CCCC3)s2)C1 (centres undefined)
[4]
  EC50: < 0.1 µM (active)
[5]
  EC50: > 60 µM (not active)
cells
  EC50: 0.137 µM (active)

## O=C(Nc1nnc(C2CCCO2)s1)c1ccc(Br)cc1 (centres undefined)
Estrogen receptor beta
  IC50: > 50 µM (not active)

## C(=C\c1ccco1)/c1ccc2ccccc2n1
[6]
  EC50: 15.2 µM (active)
[7]
  IC50: 9.47 µM (active)
[8]
  EC50: 4.25 µM (active)

## COc1cccc(/C=N/NC(=O)CO/N=C(\C)c2cccs2)c1OC
Cytochrome P450 2C9
  AC50: 39.8 µM (inconclusive)
[3]
  EC50: > 50 µM (active)

## COc1ccccc1NC(=O)C(=O)N/N=C/c1ccc([N+](=O)[O-])s1
[4]
  EC50: 0.858 µM (active)
[5]
  EC50: > 60 µM (not active)
[7]
  IC50: 2.56 µM (active)

## COCCOC(=O)c1c(NC(=O)COC(=O)Cc2cccc(OC)c2)sc(C(N)=O)c1C
[9]
  IC50: > 111 µM (not active)
[10]
  IC50: > 5.47 µM (active)

## CCCCN(CC)CCCNC(=O)C1CCN(c2ncnc3c2sc2cccc(F)c23)CC1
[4]
  EC50: < 0.1 µM (active)
[5]
  EC50: > 30 µM (not active)
cells
  EC50: 0.294 µM (active)

## COc1ccc(N2CC(=O)C(c3nc4ccccc4s3)=C2N)cc1
[9]
  IC50: > 111 µM (not active)
[10]
  IC50: 11.2 µM (not active)

## COc1ccc(-c2nn3c(-c4ccc(F)cc4)nnc3s2)cc1
[1]
  IC50: > 39.8 µM (not active)
[2]
  IC50: > 39.8 µM (not active)

## CCN(c1ccc(NC(=O)COC(=O)c2ccc(C)c(S(=O)(=O)N3CCOCC3)c2)cc1)C(C)C
[7]
  IC50: 1.67 µM (not active)

## CC(=O)N(Cc1cccnc1)c1cccc(-c2nc3ccccc3s2)c1
[4]
  EC50: < 0.1 µM (active)
[5]
  EC50: > 60 µM (not active)
cells
  EC50: 0.078 µM (active)

## O=C(CSc1ccc(-c2cccs2)nn1)N1CCCCC1
[1]
  IC50: 2.64 µM (active)
[2]
  IC50: 8.03 µM (active)

## Cc1ccc(CCNS(=O)(=O)c2c[nH]cn2)cc1
Estrogen receptor beta
  IC50: > 50 µM (not active)

## COc1ccc(CNS(=O)(=O)c2ccc(S(=O)(=O)N3CCCCC3)cc2)cc1
[11]
  IC50: > 50 µM (not active)

## O=C(CSC1=NCCS1)Nc1nc2c(s1)CCCC2
[3]
  EC50: > 50 µM (active)

## O=C(Nc1ccc2ccccc2c1)Nc1ccc2snnc2c1
[12]
  EC50: 14.9 µM (active)
[9]
  IC50: > 111 µM (not active)
[13]
  EC50: 15.9 µM (active)
[4]
  EC50: 1.94 µM (active)
[5]
  EC50: > 60 µM (not active)
[10]
  IC50: 10.1 µM (not active)

## COc1ccc(-n2ncc(Cl)c(Cl)c2=O)cc1
[14]
  AC50: 8.23 µM (active)
[4]
  EC50: 1.59 µM (active)
[15]
  AC50: 32.9 µM (active)
[16]
  AC50: 10.8 µM (active)
[5]
  EC50: 2.03 µM (active)
[17]
  AC50: 26.5 µM (active)
[18]
  AC50: 7.88 µM (active)
[19]
  IC50: 21.6 µM (not active)
[20]
  IC50: 1.56 µM (active)
[21]
  IC50: 1.11 µM (active)
[22]
  AC50: 8.07 µM (active)
[23]
  AC50: 20.2 µM (active)
Paired box protein Pax-8
  AC50: 5.62 µM (active)
[24]
  IC50: 2.09 µM (active)
[25]
  AC50: 3.36 µM (active)
